The IC50 is the point on the concentration scale where inhibition reaches its midpoint. The inhibition is the relative decrease from the control value, in per cent.

The text below walks through data of patent US9029553B2, “2-anilino nicotinyl linked 2-amino benzothiazole conjugates and process for the preparation thereof” (Council of Scientific & Industrial Research, priority 2011, dated 2015).

Series [1] relates to normal monkey kidney CV-1 cells. In words: MTT cytotoxicity in normal cells. Type of series: cell-based. Particulars: Primates. The procedure: These compounds were also evaluated for their cytotoxic potential in normal cells and for these purpose their IC50 value were also determine in normal monkey kidney CV-1 cells by using MTT method. The ratios of normal to cancer cells IC50 value were ranges from 10-1000 times (Table 5).

For another series, the system named is HL-60 cells. The experiment in a line: Flow cytometric analysis of reactive oxygen species (DCFH-DA). Type of series: cell-based, human. The conditions noted are these: 1 μM, 24 h, HL-60, compared to control. The method, then:
It was clear that these compounds were cytotoxic and induce apoptosis in HL-60 cells, now we have to found out the early events which were responsible for the induction of apoptosis like reactive oxygen species (ROS) or nitric oxide (NO) generation. Intracellular peroxide (ROS) in the cells was measured by DCFH-DA by using flow cytometry. Cells were incubated with tested compounds at 1 μM for 24 h in HL-60 cells and analyzed by flow cytometry after double staining with DCFH-DA (FIG. 7). Cells were analyzed for fluorescence intensity in FL1 vs. cell count. There was hardly any DCF fluorescence (ROS positive cells) in the untreated HL-60 cells, and this status remained unchanged when cells were incubated for 24 hr with compounds 7 and 8. […] Compounds 4 and 6 also induce the generation of peroxide in HL-60 cells (31 and 16% increase, respectively).
(In general: Flow cytometry measures light scatter and fluorescence of single cells or particles in a stream.)

The test system of the next series is IGR-OV-1. In words: SRB percentage growth inhibition (NCI protocol). Type of series: cell-based. The conditions noted are these: Homo sapiens, IGROV-1, 48 hrs exposure. The procedure: (§1) 2-Anilino nicotinyl linked 2-amino benzothiazoles conjugates of formula 4-8 have been tested against ten and eleven human cancer cell lines for 10 and 1 μM respectively derived from nine cancer types (leukemia, non-small cell lung cancer, colon cancer, CNS cancer, melanoma, ovarian cancer, renal cancer, prostate cancer and breast cancer) as per NCI protocol. For each compound, percentage of growth inhibition was calculated for individual cell lines at a minimum of two concentrations (1 and 10 μM). A protocol of 48 hrs continuous drug exposure was used, and a sulforhodamine B (SRB) protein assay was used to estimate cell viability or growth. The percentage of growth inhibition compared with the control was calculated in table 1 and table 2.

For another series, the system named is PC-3. In words: SRB percentage growth inhibition (NCI protocol). Type of series: cell-based. The conditions noted are these: Homo sapiens, 48 hrs exposure. The procedure: as §1
The test system of another series is IMR-32. In words: SRB percentage growth inhibition (NCI protocol). Type of series: cell-based. Particulars: Homo sapiens, 48 hrs exposure. The method, then:
as §1

The test system of a further series is HEP-2. The experiment in a line: SRB percentage growth inhibition (NCI protocol). Particulars: Homo sapiens, 48 hrs exposure. Type of series: cell-based. The procedure:
as §1

The subject of the next series is 502713. In words: SRB percentage growth inhibition (NCI protocol). Type of series: cell-based. Particulars: Homo sapiens, 48 hrs exposure. The procedure:
as §1

The test system of the next series is SK-NS-H. In words: SRB percentage growth inhibition (NCI protocol). The conditions noted are these: Homo sapiens, SK-N-SH, 48 hrs exposure. Type of series: cell-based. The method, then: as §1
The test system of series [2] is Hela. The experiment in a line: SRB percentage growth inhibition (NCI protocol). Type of series: cell-based. The conditions noted are these: Homo sapiens, 48 hrs exposure. The procedure:
as §1

For series [3], the system named is HCT-15. In words: SRB percentage growth inhibition (NCI protocol). Type of series: cell-based. The conditions noted are these: Homo sapiens, 48 hrs exposure. The procedure:
as §1

Series [4] concerns SiHa. In words: SRB percentage growth inhibition (NCI protocol). Type of series: cell-based. Particulars: Homo sapiens, 48 hrs exposure. The procedure:
as §1

For series [5], the system named is MCF-7. The experiment in a line: SRB percentage growth inhibition (NCI protocol). Type of series: cell-based. Particulars: Homo sapiens, MCF7, 48 hrs exposure. The procedure:
as §1

The next series has as its system Sw-620. In words: SRB percentage growth inhibition (NCI protocol). Type of series: cell-based. Particulars: Homo sapiens, 48 hrs exposure. The procedure: as §1
The test system of another series is DU145. The experiment in a line: SRB percentage growth inhibition (NCI protocol). Type of series: cell-based. The conditions noted are these: Homo sapiens, DU-145, 48 hrs exposure. The procedure: as §1
A further series relates to OVCAR-5. The experiment in a line: SRB percentage growth inhibition (NCI protocol). Type of series: cell-based. The conditions noted are these: Homo sapiens, 48 hrs exposure. The method, then: as §1
In another series the test system is A549. The experiment in a line: SRB percentage growth inhibition (NCI protocol). Type of series: cell-based. Particulars: Homo sapiens, 48 hrs exposure. The method, then:
as §1

The subject of series [6] is Ehrlich Ascites Carcinoma (EAC). In words: In vivo anticancer activity, Ehrlich ascites carcinoma. Also on record: species or system Swiss mice. The conditions noted are these: for No. of deaths / toxicity to animals: EAC mice. The procedure: Model: Ehrlich Ascites Carcinoma (EAC)
Ehrlich ascites carcinoma (EAC) cells were collected from the peritoneal cavity of the swiss mice harbouring 8-10 days old ascitic tumor. 1×10^7 EAC cells were injected intraperitoneally in Swiss mice selected for the experiment on day 0. The next day, animals were randomized and divided into different groups. The treatment groups contained 7 animals each and control group contained 10 animals. Treatment groups were treated with different doses of test substances intraperitoneally from day 1-9. One of the treatment group received 5-fluorouracil (20 mg/kg, i.p) and it served as positive control. The tumor bearing control group was similarly administered normal saline (0.2 ml, i.p.). On day 12, animals were sacrificed and ascitic fluid was collected from peritoneal cavity of each mouse for the evaluation of tumor growth. Percent tumor growth inhibition was calculated based on the total number of tumor cells present in the peritoneal cavity as on day 12 of the experiment using the following formula.

The subject of series [7] is Hela. The experiment in a line: MTT inhibition of cell proliferation. Type of series: cell-based. The conditions noted are these: Homo sapiens, 48 h. The source says:
(§2) In order to determine the mode of action of cell death in cancer cells, first we explored the cytotoxic potential of different structural analogs of benzothiazoles on different human cancer cell lines. […] These compounds have limited or no cytotoxicity to cervical cancer SiHa, HeLa cells, breast cancer MCF-7 cells and colon cancer HCT-15 cells.

Series [8] has as its system HCT-15. The experiment in a line: MTT inhibition of cell proliferation. Type of series: cell-based. Particulars: Homo sapiens, 48 h.
From the text: as §2

Series [9] has as its system SiHa. The experiment in a line: MTT inhibition of cell proliferation. Type of series: cell-based. The conditions noted are these: Homo sapiens, 48 h.
From the text: as §2

For series [10], the system named is MCF-7. In words: MTT inhibition of cell proliferation. Type of series: cell-based. Particulars: Homo sapiens, MCF7, 48 h.
From the text: as §2

Another series has as its system HL-60. The experiment in a line: MTT inhibition of cell proliferation. Type of series: cell-based. Particulars: Homo sapiens, 48 h.
From the text: as §2

The next series concerns topoisomerase II. The experiment in a line: DNA topoisomerase-II inhibition assay. Type of series: biochemical. The conditions noted are these: 1 μM; etoposide 100 μM. The source says: DNA topoisomerases are nuclear enzymes capable of resolving the topology of DNA to allow its replication. So, proper relaxing is very important for successful replication cycle and thus for the cell survival. However, topoisomerases also serve as targets in the anticancer chemotherapy in which cell death serves an important purpose. Moreover, the topoisomerase targeting drugs can either be classified either topo posions, which act by stabilizing enzyme DNA cleavable complexes leading to DNA break or topo catalytic inhibitors, which act by stabilizing enzyme where both DNA strands remain intact and no DNA breaks occur. Importantly, all the topoisomerase inhibitors finally induce apoptosis. In the present study, all the five compounds 4-8 were first subjected to topoisomerase II inhibition assay.

Turning to `O=C(Nc1nc2ccc([N+](=O)[O-])cc2s1)c1cccnc1Nc1ccccc1` [Compound 4, N-3-(6-Nitro-1,3-benzothiazol-2-yl)-2-(phenylamino)-3-pyridinecarboxamide], the IC50 in series [1] was 70 µM; in the series with Hela [7], more than 100 µM; in the series on HCT-15 [8], more than 100 µM; in the series with SiHa [9], 28 µM; with MCF-7 [10] it was more than 100 µM; with HL-60, 0.58 µM. The “increase in DCF positive cell population (ROS)” value with HL-60 cells is listed as 31%. Further, the inhibition at 1 µM in the series with IGR-OV-1 is 29%; in the series with PC-3, 22%; with IMR-32, 35%; in the series with HEP-2 it was 50%; with Hela [2] it was 9%; in the series on HCT-15 [3], 6%. Also, the inhibition at 1 µM in the series on MCF-7 [5] amounted to 44%; in the series with Sw-620, 9%; with DU145 it was 35%; in the series with OVCAR-5, 29%; in the series on A549, 23%. Further, the inhibition at 10 µM with IMR-32 worked out at 45%; in the series on HEP-2, 26%; with 502713, 63%; in the series with SK-NS-H it was 48%; in the series on HCT-15 [3], 66%; in the series on SiHa [4], 53%. For the same compound, the inhibition at 10 µM is 65% in the series with Sw-620, 52% with DU145, 50% in the series with OVCAR-5 and 31% in the series on A549. Also, the “Growth Inhibition (%)” value in series [6] (10 mg/Kg i.p. day 1-9, read day 12) is given as 42.21%; in series [6] (50 mg/Kg i.p. day 1-9, read day 12), “Intolerable”. Besides, the “No. of deaths / toxicity to animals” value is listed as 2 in series [6] (10 mg/Kg i.p.); 2/7 in series [6] (10 mg/Kg i.p., listed as Comp 4); “toxic” in series [6] (50 mg/Kg i.p.); 7/7 in series [6] (50 mg/Kg i.p., listed as Comp 4). Also, the “topoisomerase-II inhibition (DNA relaxation)” value in the series on topoisomerase II was “more potent effect relative to etoposide”.
On to `COc1ccc(Nc2ncccc2C(=O)Nc2nc3ccc([N+](=O)[O-])cc3s2)cc1` [Compound 5, N3-(6-nitro-1,3-benzothiazol-2-yl)-2-(4-methoxyanilino)nicotinamide], for which the IC50 in series [1] is 10 µM; in the series with Hela [7], more than 100 µM; in the series with HCT-15 [8], more than 100 µM; with SiHa [9] it was 28 µM; in the series with MCF-7 [10] it was more than 100 µM; in the series on HL-60 it was 0.7 µM. Moreover, the “increase in DCF positive cell population (ROS)” value with HL-60 cells is approximately 44%. Besides, the inhibition at 1 µM stood at 27% with IGR-OV-1; 21% with PC-3; 53% in the series on IMR-32; 38% with HEP-2; 7% in the series on Hela [2]; 9% in the series on HCT-15 [3]. Further, the inhibition at 1 µM in the series on MCF-7 [5] worked out at 25%; with Sw-620 it was 15%; in the series with DU145, 53%; in the series with OVCAR-5, 31%; in the series with A549, 27%. Besides, the inhibition at 10 µM with IMR-32 was 55%; with HEP-2 it was 5%; in the series on 502713 it was 59%; in the series on SK-NS-H it was 64%; with HCT-15 [3] it was 47%; in the series with SiHa [4], 66%. Also, the inhibition at 10 µM was determined as 64% with Sw-620, 32% with DU145, 52% in the series on OVCAR-5 and 3% with A549. Also, the “Growth Inhibition (%)” value is 20.90% in series [6] (5 mg/Kg i.p. day 1-9, read day 12) and “Intolerable” in [6] (30 mg/Kg i.p. day 1-9, read day 12). The “No. of deaths / toxicity to animals” value in series [6] (5 mg/Kg i.p.) is listed as 0/7; in series [6] (30 mg/Kg i.p.) it was “toxic”; in [6] (30 mg/Kg i.p., listed as Comp 5) it was 7/7. In the series with topoisomerase II, the “topoisomerase-II inhibition (DNA relaxation)” value is reported as “more potent effect relative to etoposide”.
`O=c1[nH]cc(F)c(=O)[nH]1` [Compound 5-FU, 5-fluorouracil, reference compound]: the inhibition at 10 µM in the series on IMR-32 amounted to 71%; in the series on 502713, 21%; in the series on SK-NS-H it was 7%; in the series with HCT-15 [3] it was 44%; in the series with SiHa [4] it was 44%; with Sw-620 it was 76%. The compound also displayed an inhibition at 10 µM in the series with OVCAR-5 of 22%. Moreover, the inhibition at 1 µM in the series on HCT-15 [3] came to 46%; in the series with Sw-620, 44%.
Consider `CC(=O)O[C@H]1C(=O)[C@@]2(C)[C@H]([C@H](OC(=O)c3ccccc3)[C@]3(O)C[C@H](OC(=O)[C@H](O)[C@@H](NC(=O)c4ccccc4)c4ccccc4)C(C)=C1C3(C)C)[C@]1(OC(C)=O)CO[C@@H]1C[C@@H]2O` [Pac, paclitaxel, reference compound], for which the inhibition at 10 µM in the series with IMR-32 was 46%; with 502713, 59%; in the series on SK-NS-H, 20%; in the series with HCT-15 [3], 37%; in the series with SiHa [4], 49%; with Sw-620 it was 73%. Also, the figures for the inhibition at 10 µM in the series with DU145, in the series on OVCAR-5 and in the series with A549 were 42%, 51% and 41%, respectively. The inhibition at 1 µM with DU145 was 44%; with A549, 34%.
